Measurements as given in publication PMC6009935 (Journal of Enzyme Inhibition and Medicinal Chemistry, 2017).

What was measured:
[1] = target: T1, cannabinoid receptors (CBR) (Rattus norvegicus, UniProt P20272); test: biochemical; assay type: binding
T1 construct: a: performed in rat whole brain membrane homogenates; from tissue; host or cells: Wistar rat whole brain membrane homogenate
Experimental: (§1) Tris-HCl, EGTA, NaCl, MgCl2 x 6H2O, GDP, the GTP analogue GTPγS, were purchased from Sigma-Aldrich (Budapest, Hungary). Fatty acid free bovine serum albumin (BSA) was purchased from Serva (Heidelberg, Germany). Naloxone was kindly provided by the company Endo Laboratories DuPont de Nemours (Wilmington, DE, USA). HS665 was provided by Schmidhammer’s group (University of Innsbruck, Austria). […]
(§2) purchased from Tocris Bioscience (Bristol, UK).
(§3) DMSO. All compounds were stored in 1 mM stock solution at -20 °C. The radiolabelled GTP analogue, [35S]GTPγS (specific activity: 1000 Ci/mmol) were purchased from Hartmann Analytic (Braunschweig, Germany). [3H]DAMGO (specific activity: 38.8 Ci/mmol),12 [3H]IleDelt II (specific activity: 19,6 Ci/mmol), [3H]WIN55,212-2 (specific activity: 13,1 Ci/mmol) and [3H]HS665 (specific activity: 36.62 Ci/mmol),3 were radiolabeled by the Laboratory of Chemical Biology group in BRC (Szeged, Hungary).
(§4) For membrane homogenate preparations male and female Wistar rats (250-300 g body weight) and male guinea pigs (~700 g body weight, LAL/HA/BR strain) were used. Rats were housed in the local animal house of BRC (Szeged, Hungary), while guinea pigs were housed in LAB-ÁLL Bt.
(§5) (Budapest, Hungary). All the animals were kept in a temperature controlled room (21-24 °C) under a 12:12 light and dark cycle and were provided with water and food ad libitum. All housing and experiments were conducted in accordance with the European Communities Council Directives (2010/63/EU) and the Hungarian Act for the Protection of Animals in Research (XXVIII.tv. 32.§).
(§6) The total number of animals as well as their suffering was minimized.
(§7) Rat and guinea pig brain membrane homogenate preparation for binding assays Rats and guinea pigs were decapitated and their brains were quickly removed. The brains were prepared for membrane preparation as previously described,4 and partly used for binding experiments and partly were further prepared for the [35S]GTPγS binding experiments. Briefly the brains were homogenized, centrifuged in ice-cold 50 mM Tris-HCl (pH 7.4) buffer and incubated at 37 °C for 30 min in a shaking water-bath. After incubation the centrifugation was repeated as described above and the final pellet was suspended in 50 mM Tris-HCl pH 7.4 buffer containing 0.32 M sucrose, and stored at -80 °C. For the [35S]GTPγS binding experiments the final pellet of rat […]
(§8) brain membrane homogenate was suspended in ice-cold TEM (Tris-HCl, EGTA, MgCl2) and stored at -80 °C for further use.
(§9) Radioligand competition binding experiments
(§10) Aliquots of frozen rat brain membrane homogenates were centrifuged (18 000 rpm, 20 min, 4 °C) to remove sucrose and the pellets were suspended in 50 mM Tris-HCl buffer (pH 7.4). Membranes containing 0.4-0.8 mg/mL of protein were incubated in a final volume of 1 mL in the presence of unlabeled 5, 10 and 9 in increasing concentrations (10-11-10-5 M) in the presence of the appropriate radioligand in ~1 nM concentrations at certain temperature and amount of time depending on the radioligand ([3H]DAMGO and [3H]IleDelt II: 35 °C for 45 min; [3H]HS665: 30 °C, 45 min; [3H]WIN55,212-2: 30 °C for 60 min). Experiments performed with [3H]HS665 where incubated […]
(§11) more kappa receptors than the rat brain), while the rest of the radioligands were incubated together with rat whole brain membrane homogenates. Additionally, in experiments performed with […]
increasing concentrations (10-11-10-5 M) together with 50 mM Tris/HCl, 2.5 mM EGTA, 5 mM MgCl2 and 0.5 mg/mL fatty acid free BSA (pH 7.4). The level of non-specific binding was […]
binding was determined in the absence of unlabeled compounds. The reaction was terminated by rapid filtration under vacuum (Brandel M24R Cell Harvester), and washed three times with 5 mL ice-cold 50 mM Tris-HCl or 50 mM Tris/HCl, 2.5 mM EGTA, 5 mM MgCl2, 0.5 % BSA (pH 7.4) in case of [3H]WIN55,212-2. The filtration was accomplished through Whatman GF/C ([3H]DAMGO, [3H]IleDelt II and [3H]HS665) or GF/B ([3H]WIN55,212-2) glass fibers. In case of […]

KOR = target: T2, KOR (Cavia porcellus, UniProt P41144); test: Radioligand competition binding with [3H]HS665; design: species or system guinea pig
T2 construct: b: performed in guinea pig whole brain membrane homogenates; from tissue; host or cells: guinea pig (LAL/HA/BR strain) whole brain membrane homogenate
Experimental: as §1, §2, §3, §4, §5, §6, §7, §8, §9, §10, §11
binding was determined in the absence of unlabeled compounds. […]

[2] = rat whole brain membrane homogenates, logarithm of IC50, negative sign printed

## C[C@@H](NC(=O)[C@@H](N)Cc1ccc(O)cc1)C(=O)NCC(=O)N[C@@H](Cc1ccccc1)C(N)=O [Compound 10, Tyr-D-Ala-Gly-Phe-NH2, reference compound]
[1]
  CBR / CB1R binding affinity in words: did not show any affinity
[1]; [2]
  logIC50 ± S.E.M., [3H]WIN55,212 (CBR): ambiguous

## Cc1c(C(=O)NC2CCN(C(=O)[C@H](Cc3ccccc3)NC(=O)CNC(=O)[C@@H](C)NC(=O)[C@@H](N)Cc3ccc(O)cc3)CC2)nn(-c2ccc(Cl)cc2Cl)c1-n1cccc1 [Compound 9]
[1]
  CBR / CB1R binding affinity in words: modest affinity
[1]; rat whole brain membrane homogenates, Cheng-Prusoff, read-out: Ki, [3H]WIN55,212 (CBR)
  Ki: 5200 nM
[1]; rat whole brain membrane homogenates, logarithm of IC50, negative sign printed, read-out: logIC50 ± S.E.M., [3H]WIN55,212 (CBR) (converted)
  IC50: 6030 nM
KOR
  KOR binding affinity in words: unexpected improvement of affinity
KOR; guinea pig whole brain membrane homogenates, Cheng-Prusoff
  Ki: 170 nM
KOR; guinea pig whole brain membrane homogenates, logarithm of IC50, negative sign printed, read-out: logIC50 ± S.E.M., [3H]HS665 (KOR) (converted)
  IC50: 263 nM
KOR; ratio of Ki values
  Selectivity ratio DOR/KOR: 2.61

## Cc1c(C(=O)NC2CCNCC2)nn(-c2ccc(Cl)cc2Cl)c1-n1cccc1 [Compound 5]
[1]; [2]
  logIC50 ± S.E.M., [3H]WIN55,212 (CBR): ambiguous
KOR
  KOR binding affinity in words: negligible
